Experimental data published in ChEMBL document CHEMBL1150876, “Purpurediolin and purpurenin, two new cytotoxic adjacent bis-tetrahydrofuran annonaceous acetogenins from the seeds of Annona purpurea” (J Nat Prod, 1998).
≈ marks a conversion by molar mass, not a printed value.

Tests used:
Artemia salina = test: (§1) Toxicity in Artemia salina; type: organism-based; details: in vivo
MIA PaCa-2 = test: Cytotoxicity against human MIAPaCa2 cells after 7 days by MTT assay; type: functional; details: for EC50: Homo sapiens, MIA PaCa-2, 168 h, read-out: ED50 (the source's name)
HT-29 = test: Cytotoxicity against human HT-29 cells after 7 days by MTT assay; type: functional; details: for EC50: Homo sapiens, HT-29, 168 h, read-out: ED50 (the source's name)
A549 = test: Cytotoxicity against human A549 cells after 7 days by MTT assay; type: functional; details: for EC50: Homo sapiens, A549, 168 h, read-out: ED50 (the source's name)
PC-3 = test: Cytotoxicity against human PC3 cells after 7 days by MTT assay; type: functional; details: for EC50: Homo sapiens, PC-3, 168 h, read-out: ED50 (the source's name)
MCF7 = test: Cytotoxicity against human MCF7 cells after 7 days by MTT assay; type: functional; details: for EC50: Homo sapiens, MCF7, 168 h, read-out: ED50 (the source's name)
A498 = test: Cytotoxicity against human A498 cells after 7 days by MTT assay; type: functional; details: for EC50: Homo sapiens, A498, 168 h, read-out: ED50 (the source's name)
[1] = as §1; type: organism-based; details: in vivo, read-out: ED50 (the source's name)

SMILES	ED50 (Artemia salina) [×10⁻² ug/ml]	EC50 (MIA PaCa-2) [µg/mL]	EC50 (HT-29) [µg/mL]	EC50 (A549) [µg/mL]	EC50 (PC-3) [µg/mL]	EC50 (MCF7) [µg/mL]	EC50 (A498) [µg/mL]	ED50 (HT-29)	LC50 [1] [µg/mL]	ED50 (MIA PaCa-2) [µg/mL]	ED50 (A549) [µg/mL]	ED50 (PC-3) [µg/mL]	ED50 (MCF7) [µg/mL]	ED50 (A498) [µg/mL]
CCCCC[C@H](O)CCCC[C@H](O)[C@H]1CC[C@H]([C@H]2CC[C@H]([C@H](O)CCCC[C@H](O)CCCCCCCC3=C[C@H](C)OC3=O)O2)O1 [PURPURENIN]	2.9	1.98 (≈ 3.1 µM)	0.316 (≈ 0.495 µM)	1.29 (≈ 2.02 µM)	1.07 (≈ 1.67 µM)	1.67 (≈ 2.61 µM)	1.25 (≈ 1.96 µM)	–	–	–	–	–	–	–
CCCCCCCCCC[C@H](O)[C@H]1CC[C@H]([C@H]2CC[C@H]([C@H](O)CCCC[C@H](O)CCCCC[C@@H](O)CC3=C[C@H](C)OC3=O)O2)O1 [ANNOGLAUCIN]	2.2	1.45 (≈ 2.27 µM)	–	1.08 (≈ 1.69 µM)	0.356 (≈ 0.557 µM)	1.56 (≈ 2.44 µM)	1.01 (≈ 1.58 µM)	1 ×10⁻⁷ ug/ml	–	–	–	–	–	–
COc1cccc2c1C(=O)c1c(O)c3c(c(O)c1C2=O)C[C@@](O)(C(=O)CO)C[C@@H]3O[C@H]1C[C@H](N)[C@H](O)[C@H](C)O1 [DOXORUBICIN]	–	0.00145 (≈ 0.00267 µM)	0.00966 (≈ 0.0178 µM)	0.00367 (≈ 0.00675 µM)	0.0227 (≈ 0.0418 µM)	0.212 (≈ 0.39 µM)	0.00198 (≈ 0.00364 µM)	–	–	–	–	–	–	–
CCCCCCCCCCCC[C@@H](O)[C@H]1CC[C@H]([C@H](O)CCCC[C@H](O)CCCCC[C@@H](O)CC2=CC(C)OC2=O)O1 (some centres undefined) [ANNONACIN]	–	–	–	–	–	–	–	1.18 µg/mL (≈ 1.98 µM)	0.46 (≈ 0.771 µM)	1.9 (≈ 3.18 µM)	1.32 (≈ 2.21 µM)	1.33 (≈ 2.23 µM)	1.96 (≈ 3.28 µM)	1.16 (≈ 1.94 µM)
CCCCC[C@H](O)[C@H](O)CCC[C@H](O)[C@H]1CC[C@H]([C@H]2CC[C@H]([C@H](O)CCCCCCCCCCCCC3=C[C@H](C)OC3=O)O2)O1 [PURPUREDIOLIN]	7	1.44 (≈ 2.25 µM)	–	0.443 (≈ 0.693 µM)	0.353 (≈ 0.552 µM)	0.916 (≈ 1.43 µM)	1.36 (≈ 2.13 µM)	1 ×10⁻⁷ ug/ml	–	–	–	–	–	–
